Data reported in patent publication US10023559B2 (Hoffmann-La Roche Inc., priority 2014, dated 2018).

Columns and labels:
[1] = molecular target: mouse TAAR1 (Mus musculus (Mouse), UniProt Q923Y8); test: Radioligand binding assay on mouse TAAR1
Procedure: Membrane Preparation and Radioligand Binding.
HEK-293 cells stably expressing mouse TAAR1 were maintained at 37° C. and 5% CO2 in DMEM high glucose medium, containing fetal calf serum (10%, heat inactivated for 30 min at 56° C.), penicillin/streptomycin (1%), and 375 μg/ml geneticin (Gibco). Cells were released from culture flasks using trypsin/EDTA, harvested, washed twice with ice-cold PBS (without Ca^2+ and Mg^2+), pelleted at 1,000 rpm for 5 min at 4° C., frozen and stored at −80° C. Frozen pellets were suspended in 20 ml HEPES-NaOH (20 mM, pH 7.4) containing 10 mM EDTA and homogenized with a Polytron (PT 6000, Kinematica) at 14,000 rpm for 20 s. The homogenate was centrifuged at 48,000×g for 30 min at 4° C. Subsequently, the supernatant was removed and discarded, and the pellet resuspended in 20 ml HEPES-NaOH (20 mM, pH 7.4) containing 0.1 mM EDTA using the Polytron (20 s at 14,000 rpm). This procedure was repeated and the final pellet resuspended in HEPES-NaOH containing 0.1 mM EDTA and homogenized using the Polytron. Typically, aliquots of 2 ml membrane portions were stored at −80° C. With each new membrane batch the dissociation constant (Kd) was determined via a saturation curve. […] Nonspecific binding was defined as the amount of ^3[H]—(S)-4-[(ethyl-phenyl-amino)-methyl]-4,5-dihydro-oxazol-2-ylamine bound in the presence of 10 M unlabeled ligand. All compounds were tested at a broad range of concentrations (10 pM to 10 μM) in duplicates. […] The 96 deep well plates were incubated for 1 hr at 4° C. Incubations were terminated by rapid filtration through Unifilter-96 plates (Packard Instrument Company) and glass filters GF/C (Perkin Elmer) presoaked for 1 hr in polyethylenimine (0.3%) and washed 3 times with 1 ml of cold binding buffer. After addition of 45 μl of Microscint 40 (PerkinElmer) the Unifilter-96 plate was sealed and after 1 hr the radioactivity counted using a TopCount Microplate Scintillation Counter (Packard Instrument Company).

[2] = molecular target: rat TAAR1 (Rattus norvegicus (Rat), UniProt Q923Y9); test: Radioligand binding assay on rat TAAR1; conditions: read-out: Ki(μM) rat; rat TAAR1, HEK-293 membranes, second value of cell pair mouse/rat
rat TAAR1, sequence (Q923Y9 whole entry): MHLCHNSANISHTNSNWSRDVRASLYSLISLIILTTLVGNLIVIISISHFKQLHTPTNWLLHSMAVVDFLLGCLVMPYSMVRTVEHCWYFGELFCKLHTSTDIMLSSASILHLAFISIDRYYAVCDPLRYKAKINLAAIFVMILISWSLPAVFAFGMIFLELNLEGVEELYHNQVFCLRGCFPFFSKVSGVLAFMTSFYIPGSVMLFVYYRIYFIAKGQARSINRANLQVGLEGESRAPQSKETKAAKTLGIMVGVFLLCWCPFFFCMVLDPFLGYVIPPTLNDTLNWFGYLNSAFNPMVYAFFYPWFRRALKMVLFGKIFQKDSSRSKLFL

mouse TAAR1, sequence (Q923Y8 whole entry): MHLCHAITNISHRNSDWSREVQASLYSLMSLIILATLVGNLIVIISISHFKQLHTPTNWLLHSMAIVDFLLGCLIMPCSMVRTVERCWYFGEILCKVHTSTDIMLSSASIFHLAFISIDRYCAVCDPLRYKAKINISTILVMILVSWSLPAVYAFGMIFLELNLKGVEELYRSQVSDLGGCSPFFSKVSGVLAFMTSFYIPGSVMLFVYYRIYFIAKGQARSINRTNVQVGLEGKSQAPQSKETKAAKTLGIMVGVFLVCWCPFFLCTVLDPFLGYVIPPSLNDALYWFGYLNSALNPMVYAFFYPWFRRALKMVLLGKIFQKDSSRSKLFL

Row | Structure (SMILES) | Ki [1] [µM] | Ki [2] [µM]
1 | O=C(Nc1ccc(OC2CNC2)cc1)c1[nH]nc(C2CC2)c1F [Example 42, N-[4-(azetidin-3-yloxy)phenyl]-3-cyclopropyl-4-fluoro-1H-pyrazole-5-carboxamide] | 0.015 | 0.113
2 | O=C(Nc1ccc(SC2CNC2)cc1)c1cnc(C(F)(F)F)nc1 [Example 45, N-[4-(azetidin-3-ylsulfanyl)phenyl]-2-(trifluoromethyl)pyrimidine-5-carboxamide] | 0.0355 | 0.129
3 | FC1(Cc2ccccc2)CNC1 [Example 46, 3-benzyl-3-fluoro-azetidine] | 1.99 | 0.552
4 | Brc1ccc(C=C2CNC2)cc1 [Example 50, 3-[(4-bromophenyl)methylene]azetidine] | 0.793 | 0.0998
5 | O=C(Nc1ccc(C(F)(F)C2CNC2)cc1)c1ccc(Cl)cc1 [Example 51, N-[4-[azetidin-3-yl(difluoro)methyl]phenyl]-4-chloro-benzamide] | 0.0011 | 0.0515
6 | O=C(Nc1ccc(Cl)nc1)c1ccc(OC2CNC2)cc1Cl [Example 53, 4-(azetidin-3-yloxy)-2-chloro-N-(6-chloro-3-pyridyl)benzamide] | 0.0552 | 2.43
7 | O=C(Nc1ccc(CC2(F)CNC2)cc1)c1ccc(Cl)nc1 [Example 54, 6-chloro-N-[4-[(3-fluoroazetidin-3-yl)methyl]phenyl]pyridine-3-carboxamide] | 0.003 | 0.0182
8 | O=C(Nc1ccc(CC2(F)CNC2)cc1)c1cnc(C(F)(F)F)nc1 [Example 55, N-[4-[(3-fluoroazetidin-3-yl)methyl]phenyl]-2-(trifluoromethyl)pyrimidine-5-carboxamide] | 0.0161 | 0.0059
9 | O=C(Nc1ccc(CC2(F)CNC2)cc1)c1n[nH]c(C2CC2)c1Cl [Example 56, 4-chloro-3-cyclopropyl-N-[4-[(3-fluoroazetidin-3-yl)methyl]phenyl]-1H-pyrazole-5-carboxamide] | 0.0034 | 0.0151
10 | O=C(Nc1ccc(CC2(F)CNC2)cc1)c1cnc(OCC(F)(F)F)cn1 [Example 57, N-[4-[(3-fluoroazetidin-3-yl)methyl]phenyl]-5-(2,2,2-trifluoroethoxy)pyrazine-2-carboxamide] | 0.0147 | 0.0369
11 | O=C(Nc1ccc(C=C2CNC2)cc1)c1cnc(C(F)(F)F)nc1 [Example 59, N-[4-(azetidin-3-ylidenemethyl)phenyl]-2-(trifluoromethyl)pyrimidine-5-carboxamide] | 0.0089 | 0.0079
12 | O=C(Nc1ccc(C=C2CNC2)cc1)c1ccc(Cl)cc1 [Example 61, N-[4-(azetidin-3-ylidenemethyl)phenyl]-4-chloro-benzamide] | 0.121 | 0.246
13 | FC(F)(F)c1cnc(Nc2ccc(C=C3CNC3)cc2)nc1 [Example 63, N-[4-(azetidin-3-ylidenemethyl)phenyl]-5-(trifluoromethyl)pyrimidin-2-amine] | 0.0614 | 0.0385
14 | O=C(Nc1ccc(CC2CNC2)cc1)c1ccc(Cl)nc1 [Example 64, N-[4-(azetidin-3-ylmethyl)phenyl]-6-chloro-pyridine-3-carboxamide] | 0.015 | 0.0615
15 | CCOc1ccc(C(=O)Nc2ccc(CC3(F)CNC3)cc2)nn1 [Example 67, 6-ethoxy-N-[4-[(3-fluoroazetidin-3-yl)methyl]phenyl]pyridazine-3-carboxamide] | 0.0294 | 0.0968
16 | COc1cc(C(=O)Nc2ccc(CC3(F)CNC3)cc2)nc(C(F)(F)F)n1 [Example 68, 6 N-[4-[(3-fluoroazetidin-3-yl)methyl]phenyl]-6-methoxy-2-(trifluoromethyl)pyrimidine-4-carboxamide] | 0.0064 | 0.0071
17 | O=C(Nc1ccc(C[C@H]2CCN2)cc1)c1ccc(Cl)cc1 [Example 71, N-[4-[[(2S)-azetidin-2-yl]methyl]phenyl]-4-chloro-benzamide] | 0.001 | 0.0065
18 | O=C(Nc1ccc(C[C@@H]2CCN2)cc1)c1ccc(Cl)cc1 [Example 72, N-[4-[[(2R)-azetidin-2-yl]methyl]phenyl]-4-chloro-benzamide] | 0.0039 | 0.0686
19 | COC1(Cc2ccc(NC(=O)c3ccc(Cl)nc3)cc2)CNC1 [Example 73, 6-chloro-N-[4-[(3-methoxyazetidin-3-yl)methyl]phenyl]pyridine-3-carboxamide] | 0.0136 | 0.0543
20 | COC1(Cc2ccc(NC(=O)c3cnc(C(F)(F)F)nc3)cc2)CNC1 [Example 74, N-[4-[(3-methoxyazetidin-3-yl)methyl]phenyl]-2-(trifluoromethyl)pyrimidine-5-carboxamide] | 0.0529 | 0.0417
21 | O=C(Nc1ccc(OC2CNC2)cc1)c1cnc(C(F)(F)F)cn1 [Example 75, N-[4-(azetidin-3-yloxy)phenyl]-5-(trifluoromethyl)pyrazine-2-carboxamide] | 0.0052 | 0.0106
22 | CCOc1ccc(C(=O)Nc2ccc(OC3CNC3)cc2)nn1 [Example 76, N-[4-(azetidin-3-yloxy)phenyl]-6-ethoxy-pyridazine-3-carboxamide] | 0.054 | 0.167
23 | O=C(Nc1ccc(OC2CNC2)cc1)c1cnc(OCC(F)(F)F)cn1 [Example 77, N-[4-(azetidin-3-yloxy)phenyl]-5-(2,2,2-trifluoroethoxy)pyrazine-2-carboxamide] | 0.004 | 0.0187
24 | O=C(Nc1ccc(C[C@@H]2CCN2)cc1)c1cnc(C(F)(F)F)nc1 [Example 78, N-[4-[[(2R)-azetidin-2-yl]methyl]phenyl]-2-(trifluoromethyl)pyrimidine-5-carboxamide] | 0.0293 | 0.269
25 | O=C(Nc1ccc(C[C@@H]2CCN2)cc1)c1ccc(Cl)nc1 [Example 79, N-[4-[[(2R)-azetidin-2-yl]methyl]phenyl]-6-chloro-pyridine-3-carboxamide] | 0.01 | 0.348
26 | O=C(Nc1ccc(C[C@H]2CCN2)cc1)c1cnc(C(F)(F)F)nc1 [Example 80, N-[4-[[(2S)-azetidin-2-yl]methyl]phenyl]-2-(trifluoromethyl)pyrimidine-5-carboxamide] | 0.0272 | 0.026
27 | O=C(Nc1ccc(C[C@H]2CCN2)cc1)c1ccc(Cl)nc1 [Example 81, N-[4-[[(2S)-azetidin-2-yl]methyl]phenyl]-6-chloro-pyridine-3-carboxamide] | 0.0041 | 0.0202

Results, then the compound that gave them:

Row | Ki [1] [µM] | Ki [2] [µM] | Structure (SMILES)
28 | 0.0035 | 0.0392 | CCc1n[nH]c(C(=O)Nc2ccc(OC3CNC3)cc2)c1Cl [Example 41, N-[4-(azetidin-3-yloxy)phenyl]-4-chloro-3-ethyl-1H-pyrazole-5-carboxamide]
29 | 0.0068 | 0.0435 | Cn1nc(C(=O)Nc2ccc(OC3CNC3)cc2)c(Cl)c1C(F)(F)F [Example 43, N-[4-(azetidin-3-yloxy)phenyl]-4-chloro-1-methyl-5-(trifluoromethyl)pyrazole-3-carboxamide]
30 | 0.0085 | 0.165 | O=C(Nc1ccc(SC2CNC2)cc1)c1cnc(C2CC2)nc1 [Example 44, N-[4-(azetidin-3-ylsulfanyl)phenyl]-2-cyclopropyl-pyrimidine-5-carboxamide]
31 | 0.0039 | 0.0468 | CCc1n[nH]c(C(=O)Nc2ccc(OC3CNC3)cc2)c1Br [Example 47, N-[4-(azetidin-3-yloxy)phenyl]-4-bromo-3-ethyl-1H-pyrazole-5-carboxamide]
32 | 0.0143 | 0.0943 | Cc1[nH]nc(C(=O)Nc2ccc(OC3CNC3)cc2)c1Br [Example 48, N-[4-(azetidin-3-yloxy)phenyl]-4-bromo-3-methyl-1H-pyrazole-5-carboxamide]
33 | 1.39 | 0.291 | FC(F)(c1ccc(Br)cc1)C1CNC1 [Example 49, 3-[(4-bromophenyl)-difluoro-methyl]azetidine]
34 | 0.0009 | 0.0035 | O=C(Nc1ccc(CC2(F)CNC2)cc1)c1ccc(Cl)cc1 [Example 52, 4-chloro-N-[4-[(3-fluoroazetidin-3-yl)methyl]phenyl]benzamide]
35 | 0.0014 | 0.0188 | O=C(Nc1ccc(C=C2CNC2)cc1)c1n[nH]c(C2CC2)c1Cl [Example 58, N-[4-(azetidin-3-ylidenemethyl)phenyl]-4-chloro-3-cyclopropyl-1H-pyrazole-5-carboxamide]
36 | 0.0084 | 0.0099 | O=C(Nc1ccc(C=C2CNC2)cc1)c1ccnc(C(F)(F)F)c1 [Example 60, N-[4-(azetidin-3-ylidenemethyl)phenyl]-2-(trifluoromethyl)pyridine-4-carboxamide]
37 | 0.0081 | 0.0181 | FC(F)(F)c1nccc(Nc2ccc(C=C3CNC3)cc2)n1 [Example 62, N-[4-(azetidin-3-ylidenemethyl)phenyl]-2-(trifluoromethyl)pyrimidin-4-amine]
38 | 0.0026 | 0.023 | O=C(Nc1ccc(C=C2CNC2)cc1)c1ccc(Cl)nc1 [Example 65, N-[4-(azetidin-3-ylidenemethyl)phenyl]-6-chloro-pyridine-3-carboxamide]
39 | 0.323 | 0.0824 | CCc1n[nH]c(C(=O)Nc2ccc(CC3(F)CNC3)cc2)c1Cl [Example 66, 4-chloro-3-ethyl-N-[4-[(3-fluoroazetidin-3-yl)methyl]phenyl]-1H-pyrazole-5-carboxamide]
40 | 0.0421 | 0.0361 | O=C(Nc1ccc(CC2(F)CNC2)cc1)c1cnc(OCC(F)(F)F)nc1 [Example 69, N-[4-[(3-fluoroazetidin-3-yl)methyl]phenyl]-2-(2,2,2-trifluoroethoxy)pyrimidine-5-carboxamide]
41 | 0.0069 | 0.0099 | O=C(Nc1ccc(CC2(F)CNC2)cc1)c1cnc(C(F)(F)F)cn1 [Example 70, N-[4-[(3-fluoroazetidin-3-yl)methyl]phenyl]-5-(trifluoromethyl)pyrazine-2-carboxamide]
